Data: patent US10301284B2, “Therapeutic inhibitory compounds” (LifeSci Pharmaceuticals, Inc., priority 2016, dated 2019)
pIC50: −log10 of the molar value. Like-named read-outs stand apart in the source and are kept apart here.

Biological target: human Plasma Kallikrein (Homo sapiens (Human), UniProt P03952)
Experiment: In vitro enzyme inhibition of human plasma kallikrein (Pro-Phe-Arg-AMC cleavage)
Assay type: biochemical
Protocol: The ability of the compounds disclosed herein to inhibit human plasma kallikrein activity was quantified according to the procedures below.
A 10 mM solution of the test compound was made in DMSO. This solution was serially diluted 1:5 in DMSO to yield 2000, 400, 80, 16, 3.2, 0.64, 0.128, 0.0256 and 0.00512 μM compound test solutions. A control tube containing only DMSO is included. 16 μL of each compound test solution was combined with 384 μL of assay buffer (50 mM Tris-HCl pH 7.5, 150 mM NaCl, 0.01% Triton X-100) to yield a “4× test compound buffer stock”.
Separately, a 40 nM solution of human Plasma Kallikrein (Abcam) and a 93.6 μM solution Pro-Phe-Arg-AMC (Bachem) were made using assay buffer. These solutions are hereby referred to as 4×hPK and 2×PFR-AMC, respectively.
60 μL of each 4× test compound buffer stock was combined with 60 μL of 4×hPK to yield 120 μL of “2× test compound buffer stock/2×hPK”. 50 μL was removed from this mixture and placed into duplicate wells on a Microfluor 1Black U-bottom microtiter plate (Thermo Scientific). This plate was incubated for 5 minutes at 37° C. To each well, 50 μL of pre-warmed 2×PFR-AMC was added to start the enzymatic reaction. Cleavage of PFR-AMC was monitored in a Biotek Synergy H4 reader set at 37° C. Readings are taken every 43 seconds for 1 hour. The highest mean velocity over 20 reads (˜15 minutes) is used to calculate the IC50. The IC50 is calculated using the Gen5 (Biotek Instruments).
The ability of the compounds listed in Table 2 to inhibit human plasma kallikrein activity was determined.

[1] = human plasma kallikrein, PFR-AMC substrate, 37° C., read-out: hPK IC50

human Plasma Kallikrein, sequence (P03952 391-638 limits assumed): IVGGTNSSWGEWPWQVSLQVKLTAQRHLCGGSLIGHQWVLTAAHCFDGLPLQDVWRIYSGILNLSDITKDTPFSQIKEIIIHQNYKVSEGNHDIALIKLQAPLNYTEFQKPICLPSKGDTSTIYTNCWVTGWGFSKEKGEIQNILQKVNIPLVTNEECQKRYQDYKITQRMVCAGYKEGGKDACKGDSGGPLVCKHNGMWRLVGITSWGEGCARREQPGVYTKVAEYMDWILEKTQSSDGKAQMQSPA
human Plasma Kallikrein, sequence (P03952 20-390 partner limits assumed): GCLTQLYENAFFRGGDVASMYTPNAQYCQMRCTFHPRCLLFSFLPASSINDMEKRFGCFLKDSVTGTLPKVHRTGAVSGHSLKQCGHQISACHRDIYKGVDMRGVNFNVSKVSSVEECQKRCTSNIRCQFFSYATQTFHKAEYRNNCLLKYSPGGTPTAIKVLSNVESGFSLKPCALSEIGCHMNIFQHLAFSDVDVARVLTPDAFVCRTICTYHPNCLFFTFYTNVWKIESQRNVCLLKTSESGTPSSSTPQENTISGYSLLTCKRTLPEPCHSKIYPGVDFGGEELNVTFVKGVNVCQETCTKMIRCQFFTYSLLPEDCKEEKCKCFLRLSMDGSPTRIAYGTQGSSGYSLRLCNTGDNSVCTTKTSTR

Compound | pIC50 [1] | pIC50
Cc1cc(N)nc(C)c1CNC(=O)c1c[nH]c(Cc2ccc3ncc(Cl)cc3c2)n1 [Example 103, N-((6-amino-2,4-dimethylpyridin-3-yl)methyl)-2-((3-chloroquinolin-6-yl)methyl)-1H-imidazole-4-carboxamide] | > 7.00 | 
O=C(NCc1cnc2[nH]cc(Cl)c2c1)c1nnc(Cc2ccc3ncc(Cl)cc3c2)o1 [Example 45, N-((3-chloro-1H-pyrrolo[2,3-b]pyridin-5-yl)methyl)-5-((3-chloroquinolin-6-yl)methyl)-1,3,4-oxadiazole-2-carboxamide] | 6.00 to 7.00 | 
Cc1nc(N)ccc1CNC(=O)c1cnc(Cc2ccc3ncc(Cl)cc3c2)o1 [Example 90, N-((6-amino-2-methylpyridin-3-yl)methyl)-2-((3-chloroquinolin-6-yl)methyl)oxazole-5-carboxamide] | > 7.00 | 
N#Cc1nn(Cc2ccc3ncc(Cl)cc3c2)cc1C(=O)NCc1cc2c(Cl)c[nH]c2cc1F [Example 51, N-((3-chloro-6-fluoro-1H-indol-5-yl)methyl)-1-((3-chloroquinolin-6-yl)methyl)-3-cyano-1H-pyrazole-4-carboxamide] | 6.00 to 7.00 | 
O=C(NCc1n[nH]c2ccc(Cl)cc12)c1nnc(Cc2ccc3ncc(Cl)cc3c2)o1 [Example 42, N-((5-chloro-1H-indazol-3-yl)methyl)-5-((3-chloroquinolin-6-yl)methyl)-1,3,4-oxadiazole-2-carboxamide] | 6.00 to 7.00 | 
Cc1nc(N)ccc1CNC(=O)c1nnc(Cc2ccc3ncc(Cl)cc3c2)o1 [Example 79, N-((6-amino-2-methylpyridin-3-yl)methyl)-5-((3-chloroquinolin-6-yl)methyl)-1,3,4-oxadiazole-2-carboxamide] | 6.00 to 7.00 | 
Cc1cc(N)nc(C)c1CNC(=O)c1cn(Cc2ccc3ncc(Cl)cc3c2)c2ncnc(C#N)c12 [Example 136, N-((6-amino-2,4-dimethylpyridin-3-yl)methyl)-7-((3-chloroquinolin-6-yl)methyl)-4-cyano-7H-pyrrolo[2,3-d]pyrimidine-5-carboxamide] |  | 6.00 to 7.00
Cc1cc(N)nc(C)c1CNC(=O)c1cn(Cc2ccc3ncc(Cl)cc3c2)c2ncc(C#N)cc12 [Example 135, N-((6-amino-2,4-dimethylpyridin-3-yl)methyl)-1-((3-chloroquinolin-6-yl)methyl)-5-cyano-1H-pyrrolo[2,3-b]pyridine-3-carboxamide] |  | 6.00 to 7.00
Cc1cc(N)nc(C)c1CNC(=O)c1c2c(N)cccc2nn1Cc1ccc2ncc(Cl)cc2c1 [Example 140, 4-amino-N-((6-amino-2,4-dimethylpyridin-3-yl)methyl)-2-((3-chloroquinolin-6-yl)methyl)-2H-indazole-3-carboxamide] | < 5.00 | 
Cc1cc(N)nc(C)c1CNC(=O)c1cn(Cc2ccc3ncc(Cl)cc3c2)c(CN)n1 [Example 112, N-((6-amino-2,4-dimethylpyridin-3-yl)methyl)-2-(aminomethyl)-1-((3-chloroquinolin-6-yl)methyl)-1H-imidazole-4-carboxamide] | 6.00 to 7.00 | 
COc1ccc2c(n1)c(C(=O)NCc1c(C)cc(N)nc1C)nn2Cc1ccc2ncc(Cl)cc2c1 [Example 137, N-((6-amino-2,4-dimethylpyridin-3-yl)methyl)-1-((3-chloroquinolin-6-yl)methyl)-5-methoxy-1H-pyrazolo[4,3-b]pyridine-3-carboxamide] |  | 6.00 to 7.00
Cc1cc(N)nc(C)c1CNC(=O)c1cn(Cc2ccc3ncc(Cl)cc3c2)c2cc[nH]c(=O)c12 [Example 118, N-((6-amino-2,4-dimethylpyridin-3-yl)methyl)-1-((3-chloroquinolin-6-yl)methyl)-4-oxo-4,5-dihydro-1H-pyrrolo[3,2-c]pyridine-3-carboxamide] | < 5.00 | 
Cc1cc(N)nc(C)c1CNC(=O)c1cn(Cc2ccc3ncc(Cl)cc3c2)c2cnc(Cl)cc12 [Example 117, N-((6-amino-2,4-dimethylpyridin-3-yl)methyl)-5-chloro-1-((3-chloroquinolin-6-yl)methyl)-1H-pyrrolo[2,3-c]pyridine-3-carboxamide] | > 7.00 | 
Cc1cc(N)nc(C)c1CNC(=O)c1cn(Cc2ccc3ncc(Cl)cc3c2)nc1CF [Example 93, N-((6-amino-2,4-dimethylpyridin-3-yl)methyl)-1-((3-chloroquinolin-6-yl)methyl)-3-(fluoromethyl)-1H-pyrazole-4-carboxamide] | > 7.00 | 
Cc1cc(N)nc(C)c1CNC(=O)c1cnc(Cc2ccc3ncc(Cl)cc3c2)n1C [Example 105, N-((6-amino-2,4-dimethylpyridin-3-yl)methyl)-2-((3-chloroquinolin-6-yl)methyl)-1-methyl-1H-imidazole-5-carboxamide] | 5.00 to 6.00 | 
Cc1cc(N)nc(C)c1CNC(=O)c1nn(Cc2ccc3ncc(Cl)cc3c2)c2ccnc(C#N)c12 [Example 76, N-((6-amino-2,4-dimethylpyridin-3-yl)methyl)-1-((3-chloroquinolin-6-yl)methyl)-4-cyano-1H-pyrazolo[4,3-c]pyridine-3-carboxamide] | > 7.00 | 
Cc1cc(N)nc(C)c1CNC(=O)c1cn(Cc2cc(C(N)=O)c3ncc(Cl)cc3c2)nc1C#N [Example 72, 6-((4-(((6-amino-2,4-dimethylpyridin-3-yl)methyl)carbamoyl)-3-cyano-1H-pyrazol-1-yl)methyl)-3-chloroquinoline-8-carboxamide] | > 7.00 | 
Cc1nc(N)ccc1CNC(=O)c1coc(Cc2ccc3ncc(Cl)cc3c2)n1 [Example 83, N-((6-amino-2-methylpyridin-3-yl)methyl)-2-((3-chloroquinolin-6-yl)methyl)oxazole-4-carboxamide] | 6.00 to 7.00 | 
Cc1cc(N)nc(C)c1CNC(=O)c1[nH]c(Cc2ccc3ncc(Cl)cc3c2)nc1Br [Example 106, N-((6-amino-2,4-dimethylpyridin-3-yl)methyl)-4-bromo-2-((3-chloroquinolin-6-yl)methyl)-1H-imidazole-5-carboxamide] | > 7.00 | 
N#Cc1nn(Cc2ccc3ncc(Cl)cc3c2)cc1C(=O)NCc1ccc2c(N)nccc2c1 [Example 49, N-((1-aminoisoquinolin-6-yl)methyl)-1-((3-chloroquinolin-6-yl)methyl)-3-cyano-1H-pyrazole-4-carboxamide] | > 7.00 | 
Cc1cc(N)nc(C)c1CNC(=O)c1nc(Cc2ccc3ncc(Cl)cc3c2)nn1C [Example 99, N-((6-amino-2,4-dimethylpyridin-3-yl)methyl)-3-((3-chloroquinolin-6-yl)methyl)-1-methyl-1H-1,2,4-triazole-5-carboxamide] | > 7.00 | 
Cc1cc(N)nc(C)c1CNC(=O)c1cn(Cc2cc(S(C)(=O)=O)c3ncc(Cl)cc3c2)nc1C#N [Example 68, N-((6-amino-2,4-dimethylpyridin-3-yl)methyl)-1-((3-chloro-8-(methylsulfonyl)quinolin-6-yl)methyl)-3-cyano-1H-pyrazole-4-carboxamide] | > 7.00 | 
COc1cc2c(C(=O)NCc3c(C)cc(N)nc3C)cn(Cc3ccc4ncc(Cl)cc4c3)c2cn1 [Example 121, N-((6-amino-2,4-dimethylpyridin-3-yl)methyl)-1-((3-chloroquinolin-6-yl)methyl)-5-methoxy-1H-pyrrolo[2,3-c]pyridine-3-carboxamide] | > 7.00 | 
N#Cc1nn(Cc2cc(F)c3ncc(Cl)cc3c2)cc1C(=O)NCc1n[nH]c2ccc(Cl)cc12 [Example 55, N-((5-chloro-1H-indazol-3-yl)methyl)-1-((3-chloro-8-fluoroquinolin-6-yl)methyl)-3-cyano-1H-pyrazole-4-carboxamide] | 6.00 to 7.00 | 
N#Cc1nn(Cc2ccc3ncc(Cl)cc3c2)cc1C(=O)NCc1n[nH]c2ccc(Cl)cc12 [Example 48, N-((5-chloro-1H-indazol-3-yl)methyl)-1-((3-chloroquinolin-6-yl)methyl)-3-cyano-1H-pyrazole-4-carboxamide] | 6.00 to 7.00 | 
N#Cc1nn(Cc2cc(F)c3ncc(Cl)cc3c2)cc1C(=O)NCc1ccc2[nH]cc(Cl)c2c1F [Example 57, N-((3-chloro-4-fluoro-1H-indol-5-yl)methyl)-1-((3-chloro-8-fluoroquinolin-6-yl)methyl)-3-cyano-1H-pyrazole-4-carboxamide] | 6.00 to 7.00 | 
Cc1cc(N)nc(C)c1CNC(=O)c1cn(Cc2ccc3ncc(Cl)cc3c2)nc1CO [Example 92, N-((6-amino-2,4-dimethylpyridin-3-yl)methyl)-1-((3-chloroquinolin-6-yl)methyl)-3-(hydroxymethyl)-1H-pyrazole-4-carboxamide] | > 7.00 | 
Cc1cc(N)nc(C)c1CNC(=O)c1cn(C)c(Cc2ccc3ncc(Cl)cc3c2)n1 [Example 104, N-((6-amino-2,4-dimethylpyridin-3-yl)methyl)-2-((3-chloroquinolin-6-yl)methyl)-1-methyl-1H-imidazole-4-carboxamide] | < 5.00 | 
Cc1cc(N)nc(C)c1CNC(=O)c1nc(Cc2ccc3ncc(Cl)cc3c2)c2ccccn12 [Example 23, N-((6-amino-2,4-dimethylpyridin-3-yl)methyl)-1-((3-chloroquinolin-6-yl)methyl)imidazo[1,5-a]pyridine-3-carboxamide] | > 7.00 | 
